The record followed here is ChEMBL document CHEMBL5528056, “BAY-9835: Discovery of the First Orally Bioavailable ADAMTS7 Inhibitor” (J Med Chem, 2024).

Converted amounts (≈) assume the structure as drawn.

For one data set, the target named is Cytochrome P450 3A4 (Homo sapiens, UniProt P08684). Briefly: Induction of CYP3A4 in human hepatocytes assessed as threshold concentration incubated for 48 hrs by qPCR analysis. Type of data set: ADME, cell-based, Hepatocyte. On the technique in general: Quantitative PCR measures a nucleic acid by following its amplification.
Data set [1] is described as follows: Solubility of compound in water at pH 7 measured after 24 hrs by HPLC analysis. It is filed as physicochemical. As to conditions: buffer, pH 7, 24 h.
For data set [2], the target named is A disintegrin and metalloproteinase with thrombospondin motifs 7 (Mus musculus, UniProt Q68SA9). The experiment in a line: Inhibition of recombinant mouse ADAMTS7 using HiLyteFluor-488 DELSSMVLELRGLRT-K(QXL520)-E-NH2 as substrate incubated for 120 mins by FRET assay.
The nature of data set [3]: Fraction unbound in human plasma. It is filed as ADME, cell-free.
The target in another data set is T1, Cytochrome P450 1A2 (Homo sapiens, UniProt P05177).
T1 sequence (P05177 whole entry): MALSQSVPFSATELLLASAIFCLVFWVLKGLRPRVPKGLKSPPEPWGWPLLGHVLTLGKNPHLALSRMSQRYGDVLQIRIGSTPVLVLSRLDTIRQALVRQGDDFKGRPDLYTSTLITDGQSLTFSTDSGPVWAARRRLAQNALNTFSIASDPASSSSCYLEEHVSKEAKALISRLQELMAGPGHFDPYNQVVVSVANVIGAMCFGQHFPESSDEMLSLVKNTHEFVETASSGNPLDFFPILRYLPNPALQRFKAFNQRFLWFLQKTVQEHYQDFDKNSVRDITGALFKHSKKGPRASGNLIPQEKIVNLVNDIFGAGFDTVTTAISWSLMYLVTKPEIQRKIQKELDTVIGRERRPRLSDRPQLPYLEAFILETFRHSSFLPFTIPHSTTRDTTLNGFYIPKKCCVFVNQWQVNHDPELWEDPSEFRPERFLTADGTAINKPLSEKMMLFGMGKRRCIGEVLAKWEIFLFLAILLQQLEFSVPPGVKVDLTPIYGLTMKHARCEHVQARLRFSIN
The experiment in a line: Inhibition of CYP1A2 in human liver microsomes using phenacetin as substrate upto 20 uM by LC-MS/MS analysis. Type of data set: ADME, Microsome.

Data set [4] has as its target Voltage-dependent L-type calcium channel subunit alpha-1C (Homo sapiens, UniProt Q13936). The experiment in a line: Inhibition of hCaV1.2 upto 10 uM by voltage clamp method. It is filed as toxicity.
A short description of data set [5]: Selectivity ratio of IC50 for C-terminal 10His-tagged recombinant human ADAM10 (214 to 672 residues) expressed in baculovirus infected Sf21 cells using Dabcyl-SSNQLQRR-Glu(EDANS)-NH2 as substrate to IC50 for ADAMTS7 (unknown origin).
Data set [6] in a line: Volume of distribution at steady state in C57bl6 mouse at 0.3 mg/kg, iv measured for >24 hrs by HPLC-MS/MS analysis. It is filed as ADME, organism-based. As to conditions: in vivo.
Data set [7] can be described thus: Dose normalized AUC in C57bl6 mouse at 1 mg/kg, po measured for >24 hrs by HPLC-MS/MS analysis. Type of data set: ADME, organism-based. As to conditions: in vivo.
Data set [8] can be described thus: Half life in C57bl6 mouse at 1 mg/kg, po measured for >24 hrs by HPLC-MS/MS analysis. It is filed as ADME, organism-based. As to conditions: in vivo.
Data set [9] can be described thus: Volume of distribution at steady state in Wistar rat at 0.3 mg/kg, iv measured for >24 hrs by HPLC-MS/MS analysis. Type of data set: ADME, organism-based. As to conditions: in vivo.
Data set [10] is described as follows: Half life in Wistar rat at 0.3 mg/kg, iv measured for >24 hrs by HPLC-MS/MS analysis. Type of data set: ADME, organism-based. As to conditions: in vivo.
The nature of data set [11]: Dose normalized AUC in Wistar rat at 1 mg/kg, po measured for >24 hrs by HPLC-MS/MS analysis. It is filed as ADME, organism-based. As to conditions: in vivo.
Data set [12] is described as follows: Dose normalized AUC in Beagle dog at 0.3 mg/kg, iv measured for >24 hrs by HPLC-MS/MS analysis. Type of data set: ADME, organism-based, Canis lupus familiaris. As to conditions: in vivo.
The nature of data set [13]: Clearance in Beagle dog at 0.3 mg/kg, iv measured for >24 hrs by HPLC-MS/MS analysis. It is filed as ADME, organism-based, Canis lupus familiaris. As to conditions: in vivo.
A short description of data set [14]: Oral bioavailability in Beagle dog at 1 mg/kg measured for >24 hrs by HPLC-MS/MS analysis. It is filed as ADME, organism-based, Canis lupus familiaris. As to conditions: in vivo.

Sequence of A disintegrin and metalloproteinase with thrombospondin motifs 7 (Q68SA9 whole entry): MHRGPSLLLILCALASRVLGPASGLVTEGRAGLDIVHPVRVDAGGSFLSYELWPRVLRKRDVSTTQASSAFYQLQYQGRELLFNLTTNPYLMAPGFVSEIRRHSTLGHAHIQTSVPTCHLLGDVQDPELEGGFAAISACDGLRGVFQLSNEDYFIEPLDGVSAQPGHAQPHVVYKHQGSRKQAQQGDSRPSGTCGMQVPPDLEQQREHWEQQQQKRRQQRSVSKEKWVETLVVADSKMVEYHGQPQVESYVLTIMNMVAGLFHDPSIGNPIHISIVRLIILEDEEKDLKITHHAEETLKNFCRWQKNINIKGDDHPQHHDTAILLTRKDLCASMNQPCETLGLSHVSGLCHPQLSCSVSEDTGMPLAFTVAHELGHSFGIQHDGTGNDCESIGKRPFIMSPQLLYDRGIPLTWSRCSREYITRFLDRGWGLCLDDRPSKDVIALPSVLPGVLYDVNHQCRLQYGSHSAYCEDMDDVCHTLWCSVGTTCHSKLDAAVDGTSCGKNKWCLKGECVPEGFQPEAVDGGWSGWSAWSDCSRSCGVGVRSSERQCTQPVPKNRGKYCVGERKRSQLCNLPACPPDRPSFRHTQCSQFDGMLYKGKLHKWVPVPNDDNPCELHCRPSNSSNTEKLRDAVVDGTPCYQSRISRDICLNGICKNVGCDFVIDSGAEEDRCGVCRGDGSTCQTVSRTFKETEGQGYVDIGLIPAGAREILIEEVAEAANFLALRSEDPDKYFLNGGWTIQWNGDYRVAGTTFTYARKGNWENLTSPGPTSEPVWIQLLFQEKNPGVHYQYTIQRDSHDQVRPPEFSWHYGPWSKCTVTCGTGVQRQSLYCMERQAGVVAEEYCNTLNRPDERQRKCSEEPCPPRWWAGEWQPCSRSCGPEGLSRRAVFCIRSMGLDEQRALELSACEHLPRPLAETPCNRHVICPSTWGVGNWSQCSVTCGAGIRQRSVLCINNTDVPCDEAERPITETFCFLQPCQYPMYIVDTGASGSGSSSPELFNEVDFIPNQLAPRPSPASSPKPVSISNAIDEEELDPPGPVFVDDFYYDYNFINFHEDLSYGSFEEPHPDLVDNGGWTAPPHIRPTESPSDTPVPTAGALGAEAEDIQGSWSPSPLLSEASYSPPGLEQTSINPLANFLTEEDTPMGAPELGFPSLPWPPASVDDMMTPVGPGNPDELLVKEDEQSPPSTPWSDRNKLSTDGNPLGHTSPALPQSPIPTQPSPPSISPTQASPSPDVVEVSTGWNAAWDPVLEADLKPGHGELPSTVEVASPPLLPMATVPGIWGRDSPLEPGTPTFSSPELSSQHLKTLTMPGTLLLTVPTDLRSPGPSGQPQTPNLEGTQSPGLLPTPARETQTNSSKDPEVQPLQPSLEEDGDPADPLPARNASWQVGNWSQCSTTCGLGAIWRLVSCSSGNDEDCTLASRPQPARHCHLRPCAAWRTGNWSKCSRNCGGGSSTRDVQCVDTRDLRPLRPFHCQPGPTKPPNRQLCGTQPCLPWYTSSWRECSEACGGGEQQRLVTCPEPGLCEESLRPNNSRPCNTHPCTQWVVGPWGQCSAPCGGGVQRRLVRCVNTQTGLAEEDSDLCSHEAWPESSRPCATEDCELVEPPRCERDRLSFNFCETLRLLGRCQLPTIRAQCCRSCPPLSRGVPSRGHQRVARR
Sequence of Voltage-dependent L-type calcium channel subunit alpha-1C (Q13936 whole entry, the tested form may be a part): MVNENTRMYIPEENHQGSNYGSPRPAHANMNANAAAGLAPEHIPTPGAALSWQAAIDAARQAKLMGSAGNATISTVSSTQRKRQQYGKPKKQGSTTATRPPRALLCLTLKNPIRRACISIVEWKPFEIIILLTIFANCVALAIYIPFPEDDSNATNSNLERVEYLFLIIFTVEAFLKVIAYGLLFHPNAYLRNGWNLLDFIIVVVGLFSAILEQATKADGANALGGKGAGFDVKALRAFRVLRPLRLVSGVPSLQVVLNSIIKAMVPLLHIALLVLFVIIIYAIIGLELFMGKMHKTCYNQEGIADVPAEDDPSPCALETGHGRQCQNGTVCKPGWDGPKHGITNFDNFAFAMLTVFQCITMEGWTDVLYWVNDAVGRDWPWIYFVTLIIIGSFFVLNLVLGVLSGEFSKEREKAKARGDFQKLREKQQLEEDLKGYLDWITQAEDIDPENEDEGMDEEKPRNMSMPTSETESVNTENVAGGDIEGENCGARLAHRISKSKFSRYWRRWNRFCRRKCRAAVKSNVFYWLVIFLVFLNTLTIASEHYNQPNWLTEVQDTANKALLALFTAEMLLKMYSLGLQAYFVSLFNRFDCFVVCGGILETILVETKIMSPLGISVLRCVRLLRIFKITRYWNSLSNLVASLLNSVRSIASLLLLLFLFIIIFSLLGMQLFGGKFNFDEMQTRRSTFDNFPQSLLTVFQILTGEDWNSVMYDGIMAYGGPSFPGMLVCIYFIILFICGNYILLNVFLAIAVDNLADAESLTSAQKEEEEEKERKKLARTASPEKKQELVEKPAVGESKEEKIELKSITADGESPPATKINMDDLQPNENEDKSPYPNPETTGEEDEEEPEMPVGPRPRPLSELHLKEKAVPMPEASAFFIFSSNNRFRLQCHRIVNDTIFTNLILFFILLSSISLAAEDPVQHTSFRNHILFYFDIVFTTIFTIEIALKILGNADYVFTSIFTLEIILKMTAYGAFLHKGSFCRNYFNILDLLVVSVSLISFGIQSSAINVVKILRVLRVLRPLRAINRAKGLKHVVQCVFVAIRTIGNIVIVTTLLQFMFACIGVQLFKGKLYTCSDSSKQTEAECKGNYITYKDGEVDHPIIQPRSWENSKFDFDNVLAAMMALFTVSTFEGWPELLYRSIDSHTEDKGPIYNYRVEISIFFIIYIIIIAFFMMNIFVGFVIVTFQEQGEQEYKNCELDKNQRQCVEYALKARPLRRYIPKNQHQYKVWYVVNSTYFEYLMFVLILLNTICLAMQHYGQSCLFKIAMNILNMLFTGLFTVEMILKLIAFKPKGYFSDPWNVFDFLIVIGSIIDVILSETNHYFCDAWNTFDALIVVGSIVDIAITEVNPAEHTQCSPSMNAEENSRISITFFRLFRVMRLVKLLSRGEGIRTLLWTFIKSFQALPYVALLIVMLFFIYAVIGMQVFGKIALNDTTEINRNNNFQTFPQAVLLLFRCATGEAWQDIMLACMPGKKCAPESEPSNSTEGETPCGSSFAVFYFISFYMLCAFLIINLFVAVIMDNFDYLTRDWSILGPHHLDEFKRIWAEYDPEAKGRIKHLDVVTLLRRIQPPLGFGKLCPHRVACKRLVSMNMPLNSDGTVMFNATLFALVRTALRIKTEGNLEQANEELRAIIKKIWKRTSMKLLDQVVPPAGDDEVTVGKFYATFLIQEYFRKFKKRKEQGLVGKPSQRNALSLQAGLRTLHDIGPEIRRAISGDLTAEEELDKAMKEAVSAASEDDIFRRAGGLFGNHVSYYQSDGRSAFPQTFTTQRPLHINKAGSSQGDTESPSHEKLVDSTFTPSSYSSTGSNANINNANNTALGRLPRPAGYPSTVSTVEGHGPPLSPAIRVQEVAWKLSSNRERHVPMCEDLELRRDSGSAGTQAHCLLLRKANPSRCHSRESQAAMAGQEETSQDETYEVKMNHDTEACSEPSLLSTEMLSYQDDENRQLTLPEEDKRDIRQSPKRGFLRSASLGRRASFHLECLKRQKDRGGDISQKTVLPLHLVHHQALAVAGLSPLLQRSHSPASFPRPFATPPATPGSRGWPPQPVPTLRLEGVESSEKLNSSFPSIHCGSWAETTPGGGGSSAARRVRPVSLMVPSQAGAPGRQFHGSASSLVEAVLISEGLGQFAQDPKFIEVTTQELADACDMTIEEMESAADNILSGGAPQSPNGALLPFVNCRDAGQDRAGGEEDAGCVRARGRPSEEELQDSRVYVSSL
Sequence of Cytochrome P450 3A4 (P08684 whole entry): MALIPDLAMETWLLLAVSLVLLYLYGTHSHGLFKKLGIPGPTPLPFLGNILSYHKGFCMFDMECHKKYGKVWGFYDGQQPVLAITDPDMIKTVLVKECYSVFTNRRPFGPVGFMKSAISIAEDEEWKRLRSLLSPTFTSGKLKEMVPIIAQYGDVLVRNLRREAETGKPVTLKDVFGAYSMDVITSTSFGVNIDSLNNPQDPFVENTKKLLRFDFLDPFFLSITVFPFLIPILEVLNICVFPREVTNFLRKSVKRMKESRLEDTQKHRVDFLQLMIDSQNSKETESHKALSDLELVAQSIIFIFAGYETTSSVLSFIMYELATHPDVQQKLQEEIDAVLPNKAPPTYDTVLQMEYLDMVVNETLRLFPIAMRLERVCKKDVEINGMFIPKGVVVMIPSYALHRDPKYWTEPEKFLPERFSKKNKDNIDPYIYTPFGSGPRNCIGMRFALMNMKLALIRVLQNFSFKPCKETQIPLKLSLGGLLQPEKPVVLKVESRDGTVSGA

For the compound `Cn1nccc1[C@]1(CNC(=O)c2ccc(F)c(F)c2-c2ccc(C(F)(F)F)cc2)NC(=O)NC1=O`, on Cytochrome P450 3A4, the Activity stood at 18 µM. In [1], this compound had a solubility of 135 µg/mL (≈ 274 µM). In [2], the IC50 was 8 nM. In [3], the Fu is given as 15%. The “inhibition (INH)” value (against Cytochrome P450 1A2; in data set [4]) was “Not Active” in each case. Besides, the Ratio IC50 in data set [5] was 5470. Further, the Vdss in data set [6] amounted to 1.6 L/kg; in data set [9], 1.2 L/kg. Moreover, the AUC/dose in data set [7] came out at 2 kg·h/L; in data set [11], 3 kg·h/L; in data set [12], 88 kg·h/L. Further, the t1/2 in [8] is 2.5 h; in data set [10], 3.6 h. Moreover, the CL in data set [13] turned out to be 0.33 mL/min/kg. The F in data set [14] is 77%.

By solubility is commonly meant the concentration that dissolves in the medium under given conditions. Read a low solubility as little dissolved substance. What is called IC50 is the concentration needed to halve the response being measured. The Vdss is the apparent volume that relates the amount in the body to the concentration in plasma or blood. Read a high Vdss as extensive tissue distribution.
